{
  "source": "patent US10568945B2",
  "about": "“Compositions and methods for inducing liver regeneration by administering hepatocyte-derived exosomes” (University of Cincinnati, priority 2014, dated 2020)",
  "key": {"[1]": {"test_system": "primary mouse hepatocytes", "experiment": "Hepatocyte proliferation (BrdU incorporation)", "procedure": "(A) Primary mouse hepatocytes from wild-type mice were treated with increasing doses of exosomes derived from wild-type or CXCR2-deficient hepatocytes for 24 hrs. Cell proliferation was determined via BrdU incorporation. Data are mean±SEM with n=8-16 per group. *P<0.05 compared to control mice. **P<0.05 compared to untreated samples.\nHepatocytes were treated with hepatocyte-derived exosomes for 24 hrs. DNA incorporation of 5-bromo-20-deoxyuridine (BrdU) was employed to evaluate hepatocyte proliferation by exosomes, and data were normalized by the amount of viable cells and expressed as a ratio compared with medium alone. A commercial BrdU cell proliferation ELISA system (Abcam, Cambridge, UK) was used for this assay."}, "[2]": {"test_system": "isolated wildtype and CXCR2-deficient hepatocytes", "experiment": "Release of exosomes from isolated hepatocytes (CD81 antigen ELISA)", "format": "cell-based, mouse", "details": "GW4869 for 48 hrs", "description": "FIG. 2. CXCR2 regulates the neutral sphingomyelinase/ceramide system to release exosomes. (A) CXCR2-deficient cells show higher concentrations of ceramide than wildtype hepatocytes as determined by staining of isolated hepatocytes with Cy3-coupled anti-ceramide antibodies (A, upper panel). The intensity of the fluorescence staining in panel a reflects ceramide levels. […] Data are representative for 4 similar stainings. (B) Ceramide activity in hepatocytes was determined by a ceramide kinase assay. Data are mean±SEM with n=4 per group. *P<0.05 compared to wild-type mice. (C) Neutral sphingomyelinase activity is increased in CXCR2-deficient hepatocytes compared to wild-type mice. Data are mean±SEM with n=4 per group. *P<0.05 compared to wild-type mice. […] Cells were treated with GW4869 for 48 hrs in Williams media supplemented with exosome-depleted FBS and the number of exosomes was determined using differential centrifugation and detection of exosomes using a CD81 antigen ELISA kit. Data are mean±SEM with n=4 per group, *P<0.05 compared to wild-type mice. […]\nExosomes were purified from serum and the culture media. […] The size of exosomes in the serum and the culture medium was determined using a Zetasizer Nano (Malvern Instruments, Malvern, UK) and the number of exosomes was assessed by the CD81-antigen ELISA kit (System Biosciences)."}, "[3]": {"test_system": "sphingosine-1-phosphate (S1P) in hepatocytes", "experiment": "Measurement of S1P in hepatocytes by ELISA", "format": "cell-based, mouse", "details": "pre-incubation of hepatocytes with SPHK I2 (20 μM)"}},
  "note": "“Also recorded” adds a separate entry of the source.",
  "data": [
    {"smiles": "Nc1ncnc2c1ncn2[C@@H]1O[C@H](COC(=O)c2ccc(S(=O)(=O)F)cc2)[C@@H](O)[C@H]1O", "note": "[FSBA]", "values": [
      {"measurement": "exosome-induced hepatocyte proliferation", "setting": "[1]; exosomes treated with FSBA, washed, then added to primary hepatocytes", "result": "completely blocked"}
    ]},
    {"smiles": "O=C(/C=C/c1ccc(/C=C/C(=O)Nc2ccc(C3=NCCN3)cc2)cc1)Nc1ccc(C2=NCCN2)cc1", "note": "[GW4869]", "values": [
      {"measurement": "concentration/release of exosomes from hepatocytes", "setting": "[2]", "result": "dose dependently blocked; also recorded: dose-dependently reduced"}
    ]},
    {"smiles": "Oc1ccc(Nc2nc(-c3ccc(Cl)cc3)cs2)cc1", "note": "[SPHK I2]", "values": [
      {"measurement": "exosome-induced hepatocyte proliferation", "setting": "[1]; hepatocytes treated with 5-20 μM SPHK I2", "result": "completely abrogated"},
      {"measurement": "exosome-induced production of S1P in hepatocytes", "setting": "[3]", "result": "prevented; also recorded: completely blocked"}
    ]}
  ]
}
